This is an account of results in ChEMBL document CHEMBL4145465, “Design, synthesis and biological evaluation of novel ring-opened cromakalim analogues with relaxant effects on vascular and respiratory smooth muscles and as stimulators of elastin synthesis” (Eur J Med Chem, 2018).

Test [1] has as its system Thoracic aorta. In words: Vasorelaxing activity in Wistar rat endothelium-intact thoracic aorta ring assessed as reduction in 30 mM KCl-induced contraction after 15 mins. The following applies: 0.25 h.
For test [2], the system named is Thoracic aorta. In words: Vasorelaxing activity in Wistar rat endothelium-intact thoracic aorta ring assessed as reduction in 30 mM KCl-induced contraction at 300 uM after 15 mins relative to DMSO. The following applies: 0.25 h.

Bounds are passed on as bounds.

As a reminder, the EC50 is the concentration that produces a half-maximal response. As a reminder, the Emax is the size of the effect at its maximum, as opposed to the concentration needed. `COc1ccc(OC)c(CNC(=O)N(C)S(=O)(=O)c2ccc(C)cc2)c1`: in test [1], the concentration giving a half-maximal response (EC50) was determined as 20.9 µM. Moreover, in test [2], the Emax stood at 92.7%.
On the same counts, the results for `COc1ccc(OC)c(CNC(=O)NS(=O)(=O)c2ccccc2)c1` are over 300 µM and -20.3%.
As for `Cc1ccc(OCc2ccccc2)c(C(C)NC(=O)N(C)S(=O)(=O)c2ccccc2)c1` (configuration not stated), the EC50 in test [1] is 68.2 µM. The Emax in test [2] was 86.1%.
As to `COc1ccc(OC)c(CNC(=O)N(C)S(=O)(=O)c2ccc(Cl)cc2)c1`, the EC50 in test [1] is 18.2 µM. Also, the Emax in test [2] was 93.6%.
On the same counts, the results for `CCOc1ccc(Cl)cc1C(C)NC(=O)NS(=O)(=O)c1ccccc1` (configuration not stated) are over 300 µM and 15.8%.
Take `COc1ccc(OC)c(CNC(=O)NS(=O)(=O)c2ccc(C)cc2)c1`: in test [1], the EC50 is over 300 µM. Moreover, in test [2], the Emax is -14.5%.
As for `COc1ccc(OC)c(CNC(=O)NS(=O)(=O)c2ccc(Cl)cc2)c1`, in test [1], the EC50 is over 300 µM. Further, the Emax in test [2] was -28%.
For `Cc1ccc(S(=O)(=O)NC(=O)NC(C)c2cc(Br)ccc2OC(C)C)cc1` (configuration not stated), the EC50 in test [1] was found to be 61.8 µM. The Emax in test [2] was 93.2%.
As to `CC(NC(=O)N(C)S(=O)(=O)c1ccc(Cl)cc1)c1cc(Br)ccc1OCc1ccccc1` (configuration not stated), the EC50 in test [1] was determined as 146 µM. In addition, the Emax in test [2] worked out at 97.3%.
On the same counts, the results for `CC(C)Oc1ccc(Br)cc1C(C)NC(=O)N(C)S(=O)(=O)c1ccccc1` (racemic) are 32.1 µM and 81.5%.
For `COc1ccc(Cl)cc1C(C)NC(=O)NS(=O)(=O)c1ccc(C)cc1` (racemic), in that order: over 300 µM and 36.6%.
For `CCOc1ccc(Cl)cc1C(C)NC(=O)N(C)S(=O)(=O)c1ccc(Cl)cc1` (racemic), in that order: 14.6 µM and 105%.
With `COc1ccc(Br)cc1C(C)NC(=O)NS(=O)(=O)c1ccc(Cl)cc1` (racemic), the EC50 in test [1] was 80.9 µM. In test [2], the Emax was found to be 82.6%.
On the same counts, the results for `CC(NC(=O)NS(=O)(=O)c1ccccc1)c1cc(Br)ccc1OCc1ccccc1` (racemic) are 130 µM and 92.3%.
With `COc1ccc(Cl)cc1C(C)NC(=O)N(C)S(=O)(=O)c1ccc(C)cc1` (racemic), the EC50 in test [1] was determined as 13.8 µM. Also, in test [2], the Emax came to 107%.
For `CCOc1ccc(Cl)cc1C(C)NC(=O)NS(=O)(=O)c1ccc(C)cc1` (racemic), the EC50 in test [1] was over 300 µM. Moreover, in test [2], the Emax was determined as 45.5%.
On to `CCOc1ccc(Br)cc1C(C)NC(=O)NS(=O)(=O)c1ccc(C)cc1` (racemic), for which, in test [1], the EC50 was over 300 µM. In test [2], the Emax came to 62.2%.
For `CCOc1ccc(F)cc1C(C)NC(=O)NS(=O)(=O)c1ccc(C)cc1` (racemic), in that order: over 300 µM and 26.2%.
Consider `CC(C)Oc1ccc(Br)cc1C(C)NC(=O)N(C)S(=O)(=O)c1ccc(Cl)cc1` (racemic), for which, in test [1], the half-maximal effective concentration (EC50) came out at 43.2 µM. The Emax in test [2] was determined as 93.7%.
As for `Cc1ccc(S(=O)(=O)NC(=O)NC(C)c2ccccc2OCc2ccccc2)cc1` (racemic), the EC50 in test [1] was over 200 µM. Besides, the Emax in test [2] amounted to 84.7%.
As for `COc1ccc(Br)cc1C(C)NC(=O)NS(=O)(=O)c1ccccc1` (racemic), the 50% effective concentration (EC50) in test [1] is over 300 µM. Besides, the Emax in test [2] was 45.5%.
Regarding `COc1ccc(F)cc1C(C)NC(=O)NS(=O)(=O)c1ccc(Cl)cc1` (racemic), the EC50 in test [1] was over 300 µM. Also, the Emax in test [2] came out at 54.7%.
For `CC(C)Oc1ccc(Br)cc1C(C)NC(=O)NS(=O)(=O)c1ccccc1` (racemic), in that order: 143 µM and 73.2%.
On the same counts, the results for `Cc1ccc(S(=O)(=O)N(C)C(=O)NC(C)c2cc(Br)ccc2OCc2ccccc2)cc1` (racemic) are 67.1 µM and 47.9%.
For `CCOc1ccc(Br)cc1C(C)NC(=O)N(C)S(=O)(=O)c1ccc(Cl)cc1` (racemic), in that order: 55.7 µM and 71%.
On to `Cc1ccc(OCc2ccccc2)c(C(C)NC(=O)NS(=O)(=O)c2ccccc2)c1` (racemic), for which, in test [1], the EC50 was over 200 µM. Moreover, the Emax in test [2] was 90.7%.
Turning to `CCOc1ccc(Cl)cc1C(C)NC(=O)NS(=O)(=O)c1ccc(Cl)cc1` (racemic), in test [1], the EC50 amounted to 281 µM. Moreover, the Emax in test [2] is 69.7%.
For `CC(NC(=O)NS(=O)(=O)c1ccccc1)c1ccccc1OCc1ccccc1` (racemic), in that order: over 200 µM and 59%.
For `CCOc1ccc(Cl)cc1C(C)NC(=O)N(C)S(=O)(=O)c1ccc(C)cc1` (racemic), in that order: 12.2 µM and 106%.
As for `CC(C)Oc1ccc(Br)cc1C(C)NC(=O)NS(=O)(=O)c1ccc(Cl)cc1` (racemic), the EC50 in test [1] stood at 122 µM. Further, the Emax in test [2] worked out at 100%.
On the same counts, the results for `Cc1ccc(S(=O)(=O)N(C)C(=O)NC(C)c2cc(Br)ccc2OC(C)C)cc1` (racemic) are 34.7 µM and 102%.
On the same counts, the results for `COc1ccc(Cl)cc1C(C)NC(=O)NS(=O)(=O)c1ccc(Cl)cc1` (racemic) are over 300 µM and 40.9%.
On the same counts, the results for `CC(NC(=O)NS(=O)(=O)c1ccc(Cl)cc1)c1ccccc1OCc1ccccc1` (racemic) are 157 µM and 103%.
As to `COc1ccc(Cl)cc1C(C)NC(=O)N(C)S(=O)(=O)c1ccc(Cl)cc1` (racemic), the EC50 in test [1] came out at 20 µM. Besides, in test [2], the Emax is 103%.
For `COc1ccc(Br)cc1C(C)NC(=O)NS(=O)(=O)c1ccc(C)cc1` (racemic), in that order: over 300 µM and 67.6%.
Turning to `Cc1ccc(S(=O)(=O)NC(=O)NC(C)c2cc(Br)ccc2OCc2ccccc2)cc1` (racemic), in test [1], the EC50 was 138 µM. In addition, the Emax in test [2] was 92.5%.
Consider `CCOc1ccc(Br)cc1C(C)NC(=O)NS(=O)(=O)c1ccc(Cl)cc1` (racemic), for which, in test [1], the EC50 amounted to 171 µM. Also, in test [2], the Emax is 77.6%.
As for `CCOc1ccc(F)cc1C(C)NC(=O)NS(=O)(=O)c1ccccc1` (racemic), in test [1], the half-maximal effective concentration (EC50) is over 300 µM. Besides, the Emax in test [2] was 46.4%.
On the same counts, the results for `CCOc1ccc(Br)cc1C(C)NC(=O)NS(=O)(=O)c1ccccc1` (racemic) are over 300 µM and 35.9%.
On the same counts, the results for `CC(NC(=O)N(C)S(=O)(=O)c1ccccc1)c1cc(Br)ccc1OCc1ccccc1` (racemic) are 60.3 µM and 56.8%.
For `Cc1ccc(S(=O)(=O)NC(=O)NC(C)c2cc(C)ccc2OCc2ccccc2)cc1` (racemic), the EC50 in test [1] amounted to 91.9 µM. The Emax in test [2] was found to be 106%.
On the same counts, the results for `CCOc1ccc(Br)cc1C(C)NC(=O)N(C)S(=O)(=O)c1ccc(C)cc1` (racemic) are 28.6 µM and 90.8%.
On the same counts, the results for `CCOc1ccc(F)cc1C(C)NC(=O)NS(=O)(=O)c1ccc(Cl)cc1` (racemic) are over 300 µM and 52.7%.
On to `COc1ccc(Cl)cc1C(C)NC(=O)NS(=O)(=O)c1ccccc1` (racemic), for which the EC50 in test [1] is over 300 µM. For the same molecule, in test [2], the Emax worked out at 16.4%.
As for `COc1ccc(F)cc1C(C)NC(=O)NS(=O)(=O)c1ccc(C)cc1` (racemic), the concentration giving a half-maximal response (EC50) in test [1] is over 300 µM. Also, the Emax in test [2] was -4.5%.
On the same counts, the results for `COc1ccc(F)cc1C(C)NC(=O)NS(=O)(=O)c1ccccc1` (racemic) are over 300 µM and 1.2%.
